Experimental data from patent publication US12534425B2, “Phenalkylamines and methods of treating mood disorders” (GILGAMESH PHARMACEUTICALS, INC., priority 2020, dated 2026).

Tests used:
C57BL/6 mice = test: Head twitch response (HTR) in mice; format: in vivo; settings: for Average HTR (SEM): counted for 20 min; for ED50: Mus musculus, sc, Gaussian dose-response fit, read-out: HTR ED50 (95% CI); for maximal HTR effect: s.c., maximal effect over doses
Experimental: Animals. Adult male C57BL/6 mice, aged 8 weeks (body weight 20-25 g) were used in these experiments. Animals were housed under controlled temperatures and 12-hour light/dark cycles (lights on between 07:00-19:00 h), with ad libitum food and water. All efforts were made to minimize suffering.
Drugs and Drug Administration. Compound 1 was synthesized as described above. […] All compounds were used as the HCl salts, dissolved in a vehicle consisting of normal saline, and administered subcutaneously (s.c.) in a volume of 10 mL/kg. […] Group size was N=6 animals/group.
Procedure. Mice were administered one dose of a test drug (or vehicle) s.c. and immediately placed into a small open field for behavioral observation.
Statistical Analysis. The data points shown in Table 4 are the mean±standard error of the mean (SEM). Dose-response curves were fit and ED50s calculated using the Gaussian 2020 function in GraphPad Prism 9.

5-HT2A receptor [1] = molecular target: T1, 5-HT2A receptor (Homo sapiens (Human), UniProt P28223); test: 5-HT2A receptor radioligand binding ([3H]ketanserin); settings: for Ki: 1 nM [3H]ketanserin, HEK293 stable cell line
Experimental: Methods. Affinity of the test compounds for the 5-HT2A receptor was determined in radioligand binding experiments with [^3H]ketanserin by WuXi AppTec (Hong Kong) Limited, using methods adapted from the literature and under conditions described in Table 2.

[2] = Metabolic stability in cynomolgus monkey liver microsomes (CLM); settings: male, pooled liver microsomes, pH 7.4
5-HT2A receptor [3] = molecular target: T1, 5-HT2A receptor; test: FLIPR Ca2+ flux agonist assay at 5-HT2A; format: cell-based
Experimental: (§1) The functional activity of Compound 1 at several serotonin (5-HT) receptor subtypes (5-HT2A, 5-HT2B, and 5-HT1A) was determined in Ca^2+ flux assays, with the results summarized in Table 3.
(§2) Functional Assays at 5-HT2A, 5-HT2B, and 5-HT1A Receptors. Agonist activity at 5-HT2A, 5-HT2B, and 5-HT1A receptors was determined using a FLIPR Ca^2+ flux assay at WuXi AppTec (Hong Kong) Limited according to their standard protocols. Briefly, stably transfected cells expressing the receptor of interest (HEK293 for 5-HT2A and 5-HT2B; CHO cells for 5-HT1A) were grown and plated in a 384 well plate and incubated at 37° C. and 5% CO2 overnight. A solution of 250 mM probenecid in 1 mL FLIPR assay buffer was prepared fresh. This was combined with a fluorescent dye (Fluo-4 Direct™) to make a final assay concentration of 2.5 mM. Compounds were diluted 1:3.16 for 10 points and 750 nL was added to a 384 well compound plate using ECHO along with 30 μL assay buffer. The fluorescent dye was then added to the assay plate along with assay buffer to a final volume of 40 μL. The cell plate was incubated for 50 min at 37° C. and 5% CO2 and placed into the FLIPR Tetra along with the compound plate. 10 μL of references and compounds were then transferred from the compound plate into the cell plate and the fluorescent signal was read.

5-HT1A receptor = 5-HT1A receptor (Homo sapiens (Human), UniProt P08908); test: FLIPR Ca2+ flux agonist assay at 5-HT1A; format: cell-based
Experimental: as §1, §2

5-HT2B receptor = 5-HT2B receptor (Homo sapiens (Human), UniProt P41595); test: FLIPR Ca2+ flux agonist assay at 5-HT2B; format: cell-based
Experimental: as §1, §2

[4] = Ca2+ flux, HEK293 cells, max dose

Chain of 5-HT2B receptor (P41595 whole entry): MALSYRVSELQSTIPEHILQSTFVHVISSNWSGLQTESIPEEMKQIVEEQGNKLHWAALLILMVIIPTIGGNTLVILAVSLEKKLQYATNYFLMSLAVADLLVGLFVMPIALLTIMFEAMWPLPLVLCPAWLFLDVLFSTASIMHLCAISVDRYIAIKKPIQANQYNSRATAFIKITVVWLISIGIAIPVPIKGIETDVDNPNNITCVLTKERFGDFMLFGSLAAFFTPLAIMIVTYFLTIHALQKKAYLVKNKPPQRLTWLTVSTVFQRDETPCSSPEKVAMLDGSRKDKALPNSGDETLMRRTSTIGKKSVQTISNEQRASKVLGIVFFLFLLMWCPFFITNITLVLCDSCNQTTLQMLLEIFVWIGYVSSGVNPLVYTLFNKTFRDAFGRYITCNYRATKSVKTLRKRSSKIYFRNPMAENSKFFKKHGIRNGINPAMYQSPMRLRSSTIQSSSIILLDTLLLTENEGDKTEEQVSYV

COc1cc(CC(C)N)c(OC)cc1I (stereo not drawn) [DOI, 4-iodo-2,5-dimethoxyamphetamine]
Average HTR (SEM) (C57BL/6 mice; 0.1 mg/kg s.c.): 5.5 (0.85) | Average HTR (SEM) (C57BL/6 mice; 0.316 mg/kg s.c.): 13.0 (2.07) | Average HTR (SEM) (C57BL/6 mice; 1 mg/kg s.c.): 29.3 (2.29) | Average HTR (SEM) (C57BL/6 mice; 3.16 mg/kg s.c.): 35.6 (3.37) | Average HTR (SEM) (C57BL/6 mice; 10 mg/kg s.c.): 22.7 (1.52) | ED50 (C57BL/6 mice): 0.43 mg/kg | maximal HTR effect (C57BL/6 mice): 35.6 head twitches/20 min

CCc1cc(OC)c(CCN)cc1OC [Compound 2C-E]
Ki (5-HT2A receptor [1]): 16.7 nM | half-life at 1 μM [2]: 1.31 h | microsomal CLint at 1 μM [2]: 17.6 µL/min/mg

C=CCc1cc(OC)c(CCN)cc1OC [Compound 1, 2-(4-allyl-2,5-dimethoxyphenyl)ethan-1-amine]
Average HTR (SEM) (C57BL/6 mice; 0.1 mg/kg s.c.): 8.8 (0.79) | Average HTR (SEM) (C57BL/6 mice; 0.316 mg/kg s.c.): 13.3 (0.49) | Average HTR (SEM) (C57BL/6 mice; 1 mg/kg s.c.): 23.0 (1.21) | Average HTR (SEM) (C57BL/6 mice; 3.16 mg/kg s.c.): 28.8 (1.58) | Average HTR (SEM) (C57BL/6 mice; 10 mg/kg s.c.): 24.3 (2.04) | ED50 (C57BL/6 mice): 0.28 mg/kg | maximal HTR effect (C57BL/6 mice): 28.8 head twitches/20 min | EC50 (5-HT2A receptor [3]): 2.15 nM | selectivity among 5-HT receptors (in words) (5-HT2A receptor [3]; 5-HT2A over 5-HT2B and 5-HT1A, Ca2+ flux): selective for the 5-HT2A receptor over the 5-HT2B and 5-HT1A receptors | agonist activity at the 5-HT2A receptor (in words) (5-HT2A receptor [3]; Ca2+ flux): potent and highly efficacious agonist | 5-HT2A % Act @ Max Dose (5-HT2A receptor [3]; [4]): 110.99% | EC50 (5-HT1A receptor): > 100000 nM | 5-HT1A % Act @ Max Dose (5-HT1A receptor; Ca2+ flux, CHO cells, max dose): 13.25% | Ki (5-HT2A receptor [1]): 90.4 nM | binding affinity at the 5-HT2A receptor (in words) (5-HT2A receptor [1]; compared to closely related compounds): reduced binding affinity | EC50 (5-HT2B receptor): 77.7 nM | 5-HT2B % Act @ Max Dose (5-HT2B receptor; [4]): 74.87% | half-life at 1 μM [2]: 0.705 h | microsomal CLint at 1 μM [2]: 32.8 µL/min/mg

COc1cc(CCN)c(OC)cc1Br [Compound 2C-B]
half-life at 1 μM [2]: 1.25 h | microsomal CLint at 1 μM [2]: 18.4 µL/min/mg

COc1cc(C(F)(F)F)c(OC)cc1CCN [Compound 2C-TFM, 2,5-dimethoxy-4-(trifluoromethyl)phenethylamine]
Average HTR (SEM) (C57BL/6 mice; 0.316 mg/kg s.c.): 6.5 (0.89) | Average HTR (SEM) (C57BL/6 mice; 1 mg/kg s.c.): 19.2 (2.47) | Average HTR (SEM) (C57BL/6 mice; 3.16 mg/kg s.c.): 19.2 (2.37) | Average HTR (SEM) (C57BL/6 mice; 10 mg/kg s.c.): 17.2 (1.62) | Average HTR (SEM) (C57BL/6 mice; 31.6 mg/kg s.c.): 9.3 (1.12) | ED50 (C57BL/6 mice): 0.43 mg/kg | maximal HTR effect (C57BL/6 mice): 19.2 head twitches/20 min | Ki (5-HT2A receptor [1]): 15.8 nM
